Assays:
Format in all cases: cell-based, human
CD34+ HSPCs [1] = experiment: lentiviral-based pooled functional screen of i53 variant libraries at the HBB locus; NGS enrichment in mCherry+GFP+ vs mCherry+GFP- cells; conditions: MOI=2500
Experimental: CD34+ HSPC cells were transduced using lentivirus at MOIs of 0.25-1 at day 1 post thaw. Cells were concentrated using centrifugation (180 g×7 min), counted, and added at a concentration of 4×10^6 cells/mL to media containing lentivirus, cyclosporin A (5 μM, Sigma Aldrich) and Synperonic F108 (0.5 mg/mL, Sigma Aldrich). After 4 h of incubation, cells were spun down, washed once with media, and seeded into lentivirus-free media at a density of 3.5×10^5 cells/mL.
Chemically-modified single guide RNAs (sgRNAs) used to edit CD34+ HSPCs at the HBB locus were purchased from Synthego. […] Cells were collected, counted, and pelleted at 180 g×7 min. […]
Three days after transduction, cells were edited in triplicate or quadruplet at HBB as described above, using HBB-UBB-GFP donor AAV6 (MOI of 2.5×10^4 vector genomes/cell). […] The DNA concentration of each sample was measured using a Qubit 1×dsDNA BR assay kit (ThermoFisher).
An amplicon sequencing workflow was designed to sequence and quantify i53 variants within starting and post selection pools. […]
This approach was used to confirm sequence diversity in plasmid and lentiviral libraries prior to screening. For screening data analyses, a first quality control was performed on all runs to validate good values in number of mapped reads (>1e5 reads per sample), percent reads carried over from parent (from cloning), and overall distribution of sequences (no bias). […]

CD34+ HSPCs [2] = experiment: editing of CD34+ HSPCs with purified i53 variant proteins and HBB-UBC-GFP AAV donor; flow cytometry; conditions: HBB locus; protein 0.4 mg/mL; MOIs 625 and 2500; both donors
Experimental: Chemically-modified single guide RNAs (sgRNAs) used to edit CD34+ HSPCs at the HBB locus were purchased from Synthego. The sgRNA sequences were modified by adding 2′-O-methyl-3′-phosphorothioate at the three terminal nucleotides of the 5′ and 3′ ends. The target sequence for the HBB sgRNA is as follows: HBB: 5′[…]-3′ (SEQ ID NO: 74). Cas9 protein (SpyFi Cas9) was purchased from Aldevron. The RNPs were complexed at a Cas9:sgRNA molar ratio of 1:2.5 at 25° C. for 10-15 min prior to electroporation. Cells were collected, counted, and pelleted at 180 g×7 min. The cell pellets were resuspended in Maxcyte buffer with complexed RNPs and electroporated using a Maxcyte EXPERT ATx Nucleofector. After electroporation cells were plated at 3.5×10^5 cells/mL in media supplemented with cytokines and the desired AAV donor added at 5.0×10^2-2.5×10^4 vector genomes/cell. 24 h after nucleofection, cells were spun down, washed once with media, and seeded into AAV-free media at a density of 3.5×10^5 cells/mL.
CD34+ HPSCs were edited with protein variants 3 days post thaw and were harvested 2 days post nucleofection for NGS analysis or 3-5 days post nucleofection for GFP expression analysis. Editing reactions with proteins at a given concentration were repeated in duplicate or triplicate (either using the same CD34+ HSPC donor or across multiple donors).
Rates of targeted integration of the HBB UBC GFP donor were measured using a Beckman Coulter CytoFLEX. DAPI (Miltenyi Biotec) was used to discriminate live and dead cells. Flow cytometry data were analyzed using FlowJo 10 software.

CD34+ HSPCs [3] = experiment: GFP knock-in at the HBA locus with purified i53 variants and HBA-UBC-GFP AAV; flow cytometry; conditions: HBA locus; protein 0.4 mg/mL; MOIs 625 and 2500; both donors
Source text: (§1) Chemically-modified single guide RNAs (sgRNAs) were used to edit CD34+ HSPCs at the HBA, CCR5, and IL2RG loci. The sgRNA sequences were modified by adding 2′-O-methyl-3′-phosphorothioate at the three terminal nucleotides of the 5′ and 3′ ends. The target sequences for the HBA, CCR5, and IL2RG sgRNA are as follows: HBA: 5′-[…]-3′ (SEQ ID NO: 78), CCR5: 5′-[…]-3′ (SEQ ID NO: 79) IL2RG: 5′-[…]-3′ (SEQ ID NO: 80). Cas9 protein (SpyFi Cas9) was purchased from Aldevron. The RNPs were complexed at a Cas9:sgRNA molar ratio of 1:2.5 at 25° C. for 10-15 min prior to electroporation. Cells were collected, counted, and pelleted at 180 g×7 min. The cell pellets were resuspended in Maxcyte buffer with complexed RNPs and electroporated using a Maxcyte EXPERT ATx Nucleofector. After electroporation cells were plated at 3.5×10^5 cells/mL in media supplemented with cytokines and the desired AAV donor added at 5.0×10^2-2.5×10^4 vector genomes/cell. 24 h after nucleofection, cells were spun down, washed once with media, and seeded into AAV-free media at a density of 3.5×10^5 cells/mL. […]
(§2) Rates of targeted integration of the HBA-UBC-GFP, CCR5-UBC-GFP, and IL2RG-UBC-GFP donors were measured using a Beckman Coulter CytoFLEX. […] Flow cytometry data were analyzed using FlowJo 10 software.

CD34+ HSPCs [4] = experiment: GFP knock-in at the CCR5 locus with purified i53 variants and CCR5-UBC-GFP AAV; flow cytometry; conditions: CCR5 locus; protein 0.4 mg/mL; MOIs 625 and 2500; both donors
Source text: as §1, §2

CD34+ HSPCs [5] = experiment: GFP knock-in at the IL2RG locus with purified i53 variants and IL2RG-UBC-GFP AAV; flow cytometry; conditions: protein 0.4 mg/mL, MOIs 625 and 2500, both donors
Source text: as §1, §2

Substance	differential variant enrichment in the mCherry+GFP+ population relative to parent L67H (CD34+ HSPCs [1]; combinatorial library at positions 12 and 14, iterating on L67H)	% GFP incorporation relative to the no protein control (CD34+ HSPCs [2])	% GFP incorporation relative to the no protein control (CD34+ HSPCs [3])	% GFP incorporation relative to the no protein control (CD34+ HSPCs [4])	% GFP incorporation relative to the no protein control (CD34+ HSPCs [5])	differential variant enrichment in the mCherry+GFP+ population relative to parent L67R (CD34+ HSPCs [1]; combinatorial library at positions 12 and 14, parent L67R)
T12V.T14H.L67H: purified hit mutant of i53	emerged as hits relative to parent L67H	increase % GFP incorporation relative to the no protein control	increase % GFP incorporation relative to the no protein control	increase % GFP incorporation relative to the no protein control	increase % GFP incorporation relative to the no protein control	–
T12Y.T14E.L67R: purified hit mutant of i53	–	increase % GFP incorporation relative to the no protein control	increase % GFP incorporation relative to the no protein control	increase % GFP incorporation relative to the no protein control	increase % GFP incorporation relative to the no protein control	particularly beneficial to HDR levels at HBB relative to parent T12 T14 L67R

Source: patent publication US20260207777A1, “IMPROVED PEPTIDE INHIBITORS OF P53 BINDING PROTEIN 53BP1” (KAMAU THERAPEUTICS, INC., priority 2022, published 2026)
